This note sets out measurements from patent publication US11648289B2, “Antibacterial method” (priority 2016, dated 2023).

Experiment [1] relates to Lactococcus garvieae LMGT 1546. As to the method: (§1) Bacterial strains, growth conditions, bacteriocins and antimicrobial assays. All the strains (see below) used in minimal inhibitory concentration (MIC) assays (Varahan et al., 2014, M. Bio. 5:e01726-01714) were grown in BHI medium (Oxoid) at 30° C. without shaking. A collection of E. faecium strains isolated from blood in patients from different European hospitals was received from Department of Medical Microbiology, University Medical Center Utrecht, the Netherlands. […] Synthesized peptides were solubilized to concentrations of 10.0-0.1 mg/ml in 0.1% (vol/vol) trifluoroacetic acid and stored at −20° C. until use. […] Bacteriocin activity was determined by microtiter plate assay as previously described (Holo et al., 1991, J. Bacteriol., 173:3879-3887). The MIC was defined as the minimal bacteriocin concentration that inhibited the growth of the indicator strain by at least 50% (50% of the turbidity of the control culture without bacteriocin) in 200 μl culture. CD Spectroscopy Circular dichroism (CD) spectra were recorded using a Jasco J-810 spectropolarimeter (Jasco International Co) calibrated with D-camphor-10-sulfonate (Icatayama Chemical). All measurements were made using a quartz cuvette (Sterna) with 0.1 cm path length. Samples were scanned five times with a scanning rate of 50 nm/min with a bandwidth of 0.5 nm and response time of 1 s over the wavelength range 190-250 nm. Spectra were recorded at different (30 and 50%) trifluoroethanol (TFE) (Aldridge) concentrations at 25° C. The approximate α-helical content of the protein was estimated from its molar ellipticity at 222 nm (Scholtz et al., 1991, Biopolymers 31:1463-1470). NMR Spectroscopy The experiments were run on a sample containing 1.0 mM EntK1, 50% D3-TFE (99.5% D) (Aldrich), Milli-Q water and 0.2 mM of 4,4-dimethyl-4-silapentane-1-sulfonic acid (DSS) (Larodan). 2D NOESY (Jeener et al., 1979, J. Magn. Reson., 71:4546-4553), 2D TOCSY (Braunschweiler and Ernst, 1983, J. Magn. Reson., 53:521-528), 2D DQCOSY, ^15N-HSQC (Davis et al., 1992, J. Magn. Reson., 98:207-216) and ^13C-HSQC (Hurd, 1991, J. Magn. Reson., 91:648-653) were recorded. The data was acquired on a 600 MHz Bruker Avance II spectrometer with four channels and a 5 mm TCI cryoprobe (Bruker Biospin). NOESY spectra with mixing times between 120 ms and 300 ms were obtained for both samples. TOCSY mixing times of 15-80 ms were used. The experiments were run at 298.15 K. Spectra were processed using the Topspin program (Bruker Biospin). 4,4-dimethyl-4-silapentane-1-sulfonic acid (DSS) was used as a chemical shift standard, and ^15N and ^13C data were referenced using frequency ratios as described in (Wishart et al., 1995, J. Biomol. NMR., 6:135-140). For visualization, assignment and integration of the spectra the computer program CARA was used (Keller, 2004, The Computer Aided Resonance Assignment Tutorial. CANTINA Verlag, Goldau, Switzerland). The spectra were assigned using standard methods. Dihedral angle restraints were obtained from the chemical shift values using the program TALOS-N(Shen and Bax, 2013, J. Biomol. NMR, 56:227-241). Nuclear Overhauser effect (NOE) distance restraints were calculated from the peak volumes in the NOESY spectra with NOESY mixing time of 200 ms. All structure calculations were made using the structure calculation program CYANA 2.1 (Guntert et al., 1997, J. Mol. Biol., 273:283-298; Herrmann et al., 2002, J. Mol. Biol., 319:209-227). The annealing macro in CYANA calculated 100 structures. The 20 structures with the lowest energy were kept and analyzed further. The root-mean-square deviation (RMSD) was calculated and the structures were visualized using MolMol (Koradi et al., 1996, J. Mol. Graph., 14:51-55, 29-32). Generation of bacteriocin resistant mutants of E. faecalis and E. faecium.

For another experiment, the system named is E. faecium UW6920. Conditions: E. faecium UW6920, isolated from blood. The method, then: as §1
The subject of another experiment is E. faecium LMGT 2769. As to the method: as §1
The test system of the next experiment is E. faecium PO1402593*. To be noted: E. faecium PO1402593, isolated from blood, Vancomycin-resistant. The method, then:
as §1

Another experiment relates to E. faecium 928379 A*. Conditions: isolated from blood, Vancomycin-resistant. As to the method:
as §1

The next experiment deals with S. pneumoniae ms4. To be noted: ms4, rseP Y24>A, induced with ComS (2 μM). As to the method:
as §1

A further experiment concerns E. faecium 602589. To be noted: E. faecium 602589, isolated from blood. As to the method:
as §1

The next experiment concerns E. faecium P032 inv-4. Conditions: E. faecium P032 inv-4, isolated from blood. The method, then: as §1
For a further experiment, the system named is E. faecium P040 INV-25. To be noted: E. faecium P040 INV-25, isolated from blood. As to the method: as §1
The next experiment has as its system S. pneumoniae ms2. To be noted: ms2, rseP E19>A, induced with ComS (2 μM). As to the method:
as §1

Another experiment has as its system E. faecium A11 EFH2/00. Conditions: E. faecium A11 EFH2/00, isolated from blood. The method, then:
as §1

The next experiment relates to E. faecium 14-597963*. To be noted: E. faecium 14-597963, isolated from blood, Vancomycin-resistant. As to the method: as §1
The subject of experiment [2] is L. monocytogenes LMGT 2605. As to the method:
as §1

Another experiment relates to E. faecium 130409015079*. Conditions: E. faecium 130409015079, isolated from blood, Vancomycin-resistant. As to the method:
as §1

The test system of experiment [3] is Staphylococcus. aureus LMGT 3310. The method, then:
as §1

Experiment [4] deals with E. faecium LMGT2787 resistant mutants. Conditions: only HR type found. The method, then: as §1
The test system of the next experiment is E. faecalis LMGT 3370. As to the method: as §1
The subject of another experiment is E. faecium AH137. To be noted: E. faecium AH137, isolated from blood. As to the method:
as §1

No end group written: not given here.

In the case of “MLAKIKAMIKKFPNPYTLAAKLTTYEINWYKQQYGRYPWERPVA [EntEJ97]”, the “MIC 50” value stood at 0.295 µM in experiment [1]; 0.145 µM against E. faecium UW6920; 0.145 µM in the experiment on E. faecium LMGT 2769; 0.075 µM against E. faecium PO1402593*; 0.075 µM in the experiment with E. faecium 928379 A*; 0.145 µM in the experiment on E. faecium 602589. For the same sequence, the “MIC 50” value with E. faecium P032 inv-4 stood at 0.037 µM; with E. faecium P040 INV-25, 0.075 µM; against E. faecium A11 EFH2/00 it was 0.075 µM; against E. faecium 14-597963* it was 0.145 µM; in [2], 1.175 µM; in the experiment with E. faecium 130409015079*, 0.037 µM. The entries for the “MIC 50” value (in experiment [3]; in the experiment on E. faecalis LMGT 3370; with E. faecium AH137) were 0.59 µM, 0.145 µM and 0.075 µM, respectively. In addition, the results for the MIC against S. pneumoniae ms4 and against S. pneumoniae ms2 were 0.018 µM and 0.3 µM, respectively. Further, the “resistance of HR type mutants compared to the WT” value in [4] was 500 times.
As to “MKFKFNPTGTIVKKLTQYEIAWFKNKHGYYPWEIPRC [EntK1]”, the “MIC 50” value in [1] worked out at 1.37 µM; against E. faecium UW6920, 0.045 µM; with E. faecium LMGT 2769 it was 0.045 µM; in the experiment with E. faecium PO1402593*, 0.02 µM; against E. faecium 928379 A*, 0.02 µM; in the experiment on E. faecium 602589 it was 0.045 µM. Besides, the “MIC 50” value is 0.02 µM against E. faecium P032 inv-4; 0.02 µM against E. faecium P040 INV-25; 0.045 µM with E. faecium A11 EFH2/00; 0.045 µM in the experiment with E. faecium 14-597963*; more than 5.5 µM in experiment [2]; 0.02 µM with E. faecium 130409015079*. The “MIC 50” value in [3] was more than 5.5 µM; with E. faecalis LMGT 3370 it was 5.5 µM; with E. faecium AH137 it was 0.01 µM. In addition, the MIC against S. pneumoniae ms4 was 0.7 µM; against S. pneumoniae ms2, more than 5.5 µM. Further, the “resistance of HR type mutants compared to the WT” value in [4] came to 500 times.
As to “MKTILRFVAGYDIASHKKKTGGYPWERGKA [LsbB, reference compound]”, the “MIC 50” value (in experiment [1]; with E. faecium LMGT 2769; in [2]; in experiment [3]; against E. faecalis LMGT 3370) was more than 7 µM each time. Also, the MIC with S. pneumoniae ms4 and against S. pneumoniae ms2 was more than 7 µM throughout.

For orientation: MIC means the smallest concentration in the dilution series that meets the test's criterion for growth inhibition. A higher MIC goes with weaker potency.
